Our source for the IC50 values is patent US9856279B2 (AGIOS PHARMACEUTICALS, INC, priority 2011, dated 2018).

Where two headings read alike, the source gives them in different places. Some results are limits rather than exact numbers.

In one test the test system is U87MG cells. Description: Cellular assay for IDH1m inhibitors: inhibition of 2-HG production (LC-MS, 48 hours) in U87MG cells. The note with it: inhibition of 2-HG production, U87R132H cells, read-out: U87R132H IC50. Type of test: cell-based. Put shortly:
(§1)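 HT1080 or U87MG cells were seeded at 5000/well in DMEM with 10% FBS, incubated overnight, then treated with compounds (0.2% DMSO final) for 48 h. Medium 2-HG was quantified by LC-MS, and IC50 was taken as the concentration reducing 2-HG by 50% versus DMSO control.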

A further test deals with IDH1 R132H (Homo sapiens, UniProt O75874, R132H). In words: Assay for IDH1 R132H inhibitors (NADPH/aKG, resazurin detection). Type of test: biochemical. The conditions noted are these: enzyme assay of Example 12; read-out: IDH1R132H IC50. The gist of the method: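 Compound added to substrate mix (8 uM NADPH, 2 mM aKG), then enzyme mix (0.2 μg/ml IDH1 R132H); 50 min RT in 20 mM Tris pH 7.5, 150 mM NaCl, 10 mM MgCl2, 0.03% BSA. Resazurin detection mix (30 μM) 5 min RT; resorufin fluorescence Ex544/Em590.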
IDH1 R132H, sequence (O75874 whole entry R132H): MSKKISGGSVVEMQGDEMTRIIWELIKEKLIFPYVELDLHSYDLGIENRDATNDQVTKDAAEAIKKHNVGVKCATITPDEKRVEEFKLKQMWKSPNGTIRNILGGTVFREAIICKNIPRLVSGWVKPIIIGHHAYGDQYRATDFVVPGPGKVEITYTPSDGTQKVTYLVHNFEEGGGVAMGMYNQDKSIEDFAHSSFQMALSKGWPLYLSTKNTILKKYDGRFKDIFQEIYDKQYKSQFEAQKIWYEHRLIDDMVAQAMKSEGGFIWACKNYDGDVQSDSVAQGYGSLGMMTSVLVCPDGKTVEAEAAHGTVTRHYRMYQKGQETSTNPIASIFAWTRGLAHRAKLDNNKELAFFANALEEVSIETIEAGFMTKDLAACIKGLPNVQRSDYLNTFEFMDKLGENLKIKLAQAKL

The subject of another test is HT1080 cells. Description: Cellular assay for IDH1m inhibitors: inhibition of 2-HG production (LC-MS, 48 hours) in HT1080 cells. Type of test: cell-based. The note with it: Homo sapiens, HT-1080; inhibition of 2-HG production, HT1080 cells; read-out: HT1080 IC50. The gist of the method: as §1

In general, IC50 refers to the concentration that gives 50% inhibition. Consider `C=Cc1cnc2c(-c3cc(C#N)c(N4CCN(C(=O)CCOC)[C@H](C5CC5)C4)nc3C3CC3)cccc2n1` [Compound 644, (R)-6-cyclopropyl-2-(3-cyclopropyl-4-(3-methoxypropanoyl)piperazin-1-yl)-5-(2-vinylquinoxalin-5-yl)nicotinonitrile], for which the IC50 in the test on U87MG cells (Homo sapiens, U-87 MG) is below 500 nM; at IDH1 R132H, below 500 nM; with HT1080 cells, below 500 nM.
Take `COCCC(=O)N1CCN(c2nc(C3CC3)c(-c3ccc(C#N)cc3)c(C)c2C#N)C[C@H]1C` [Compound 347, (R)-5-(4-cyano-phenyl)-6-cyclopropyl-2-[4-(3-methoxy-propionyl)-3-methyl-piperazin-1-yl]-4-methyl-nicotinonitrile]: the IC50 was below 500 nM in the test on U87MG cells (Homo sapiens, U-87 MG); below 500 nM on IDH1 R132H; below 500 nM in the test with HT1080 cells.
For the compound `N#Cc1cc(-c2cccc3cnccc23)c(C2CC2)nc1N1CCN(C(=O)CC(F)(F)F)[C@H](C2CC2)C1` [Compound 387, (R)-6-cyclopropyl-2-(3-cyclopropyl-4-(3,3,3-trifluoropropanoyl)piperazin-1-yl)-5-(isoquinolin-5-yl)nicotinonitrile], the IC50 in the test with U87MG cells (Homo sapiens, U-87 MG) is below 500 nM; on IDH1 R132H it was below 500 nM; in the test on HT1080 cells it was below 500 nM.
For the compound `C=Cc1cc(-c2cc(C#N)c(N3CCN(C(=O)CO)[C@H](C4CC4)C3)nc2C2CC2)ccn1` [Compound 738, (R)-2-cyclopropyl-6-(3-cyclopropyl-4-(2-hydroxyacetyl)piperazin-1-yl)-2′-vinyl-3,4′-bipyridine-5-carbonitrile], the concentration for half-maximal inhibition (IC50) with U87MG cells (Homo sapiens, U-87 MG) was below 500 nM; on IDH1 R132H, below 500 nM; in the test on HT1080 cells, below 500 nM.
For `COCCC(=O)N1CCN(c2nc(C3CC3)c(OCc3cccc(C(=O)OC)c3)cc2C#N)C[C@H]1C` [Compound 292, (R)-methyl 3-((5-cyano-2-cyclopropyl-6-(4-(3-methoxypropanoyl)-3-methylpiperazin-1-yl)pyridin-3-yloxy)methyl)benzoate], the IC50 in the test on U87MG cells (Homo sapiens, U-87 MG) is 1000 to 10000 nM; at IDH1 R132H, below 500 nM; in the test on HT1080 cells, 500 to 1000 nM.
The matching figures for `COCCC(=O)N1CCN(c2nc(C3CC3)c(-c3cccc(NC(=O)C(F)F)c3)cc2C#N)C[C@H]1C` [Compound 432, (R)—N-(3-(5-cyano-2-cyclopropyl-6-(4-(3-methoxypropanoyl)-3-methylpiperazin-1-yl)pyridin-3-yl)phenyl)-2,2-difluoroacetamide]: 1000 to 10000 nM, 500 to 1000 nM and 1000 to 10000 nM.
For `C=Cc1cnc2c(-c3c(C4CC4)nc(N4CCN(C(=O)CCOC)[C@H](C(C)C)C4)c(C#N)c3C)cccc2n1` [Compound 765, 6-cyclopropyl-2-((R)-3-isopropyl-4-(3-methoxypropanoyl)piperazin-1-yl)-4-methyl-5-(2-vinylquinoxalin-5-yl)nicotinonitrile] the same measures were below 500 nM, below 500 nM and below 500 nM.
Turning to `CCOC(=O)N1CCN(c2cc(C#N)c(N3CCN(C(=O)CCOC)[C@H](C)C3)nc2C2CC2)CC1` [Compound 376, (R)-ethyl 4-(5-cyano-2-cyclopropyl-6-(4-(3-methoxypropanoyl)-3-methylpiperazin-1-yl)pyridin-3-yl)piperazine-1-carboxylate], the half-maximal inhibitory concentration (IC50) in the test on U87MG cells (Homo sapiens, U-87 MG) was 500 to 1000 nM; on IDH1 R132H it was below 500 nM; in the test with HT1080 cells it was 1000 to 10000 nM.
The matching figures for `C=Cc1cccc(-c2cc(C#N)c(N3CCN(C(=O)C4CC4)[C@H](C4CC4)C3)nc2C2CC2)n1` [Compound 499, (R)-6′-(4-(cyclopropanecarbonyl)-3-cyclopropylpiperazin-1-yl)-2′-cyclopropyl-6-vinyl-2,3′-bipyridine-5′-carbonitrile]: 1000 to 10000 nM, 500 to 1000 nM and 1000 to 10000 nM.
The matching figures for `COCCC(=O)N1CCN(c2nc(C3CC3)c(-c3ccc4ncsc4c3)cc2C#N)C[C@H]1C` [Compound 364, (R)-5-benzothiazol-6-yl-6-cyclopropyl-2-[4-(3-methoxy-propionyl)-3-methyl-piperazin-1-yl]-nicotinonitrile]: below 500 nM, below 500 nM and 500 to 1000 nM.
The matching figures for `C=Cc1cnc2c(-c3cc(C#N)c(N4CCN(C(=O)CCOC)[C@H](C(C)C)C4)nc3C3CC3)cccc2n1` [Compound 605, (R)-6-cyclopropyl-2-(3-isopropyl-4-(3-methoxypropanoyl)piperazin-1-yl)-5-(2-vinylquinoxalin-5-yl)nicotinonitrile]: below 500 nM, below 500 nM and below 500 nM.
Consider `C=Cc1ncc2c(-c3cc(C#N)c(N4CCN(C(=O)CCO)[C@H](C)C4)nc3C3CC3)cccc2n1` [Compound 652, (R)-6-cyclopropyl-2-(4-(3-hydroxypropanoyl)-3-methylpiperazin-1-yl)-5-(2-vinylquinazolin-5-yl)nicotinonitrile], for which the IC50 in the test on U87MG cells (Homo sapiens, U-87 MG) is below 500 nM; at IDH1 R132H, below 500 nM; in the test on HT1080 cells it was below 500 nM.
As for `C=Cc1ncc2c(-c3cc(C#N)c(N4CCN(C(=O)CCO)[C@H](C5CC5)C4)nc3C3CC3)cccc2n1` [Compound 737], the IC50 was 500 to 1000 nM in the test with U87MG cells, below 500 nM at IDH1 R132H and 500 to 1000 nM with HT1080 cells.
As for `C=CS(=O)(=O)Nc1cccc(-c2cc(C#N)c(N3CCN(C(=O)CCOC)[C@H](C)C3)nc2C2CC2)c1` [Compound 429, (R)—N-(3-(5-cyano-2-cyclopropyl-6-(4-(3-methoxypropanoyl)-3-methylpiperazin-1-yl)pyridin-3-yl)phenyl)ethenesulfonamide], the IC50 with U87MG cells (Homo sapiens, U-87 MG) was 1000 to 10000 nM; at IDH1 R132H, below 500 nM; in the test on HT1080 cells it was 1000 to 10000 nM.
`COCCC(=O)N1CCN(c2nc(C3CC3)c(OC(C)c3ccccc3)cc2C#N)C[C@H]1C` (stereo partly drawn) [Compound 277, 6-cyclopropyl-2-((R)-4-(3-methoxypropanoyl)-3-methylpiperazin-1-yl)-5-(1-phenylethoxy)nicotinonitrile]: the IC50 is 1000 to 10000 nM with U87MG cells (Homo sapiens, U-87 MG); below 500 nM on IDH1 R132H; 1000 to 10000 nM in the test on HT1080 cells.
`C#CC(=O)N1CC=C(c2cc(C#N)c(N3CCN(C(=O)C4CC4)[C@H](C)C3)nc2C2CC2)C1` [Compound 610, (R)-2-(4-(cyclopropanecarbonyl)-3-methylpiperazin-1-yl)-6-cyclopropyl-5-(1-propioloyl-2,5-dihydro-1H-pyrrol-3-yl)nicotinonitrile]: the IC50 with U87MG cells (Homo sapiens, U-87 MG) is below 500 nM; on IDH1 R132H, below 500 nM; in the test on HT1080 cells it was below 500 nM.
For `COCCC(=O)N1CCN(c2nc(C3CC3)c(-c3ccc4[nH]ncc4c3)cc2C#N)C[C@H]1C` [Compound 295, (R)-6-cyclopropyl-5-(1H-indazol-5-yl)-2-(4-(3-methoxypropanoyl)-3-methylpiperazin-1-yl)nicotinonitrile], the IC50 is 500 to 1000 nM in the test on U87MG cells (Homo sapiens, U-87 MG); below 500 nM on IDH1 R132H; 500 to 1000 nM in the test on HT1080 cells.
Regarding `C=CC(=O)Nc1cccc(-c2cc(C#N)c(N3CCN(C(=O)CCOC)[C@H](C)C3)nc2C2CC2)c1` [Compound 343, (R)—N-(3-(5-cyano-2-cyclopropyl-6-(4-(3-methoxypropanoyl)-3-methylpiperazin-1-yl)pyridin-3-yl)phenyl)acrylamide], the IC50 was below 500 nM in the test on U87MG cells (Homo sapiens, U-87 MG); below 500 nM on IDH1 R132H; below 500 nM in the test on HT1080 cells.
